Columns and labels:
Type in all cases: in vivo
chickweed [1] = experiment: Test Example 3: weedkilling efficacy through soil treatment; N: chickweed; details: treatment dosage 315 g/ha
How it was run: (§1)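 Crop and weed responses were judged three weeks after a uniform surface spray of the water-diluted emulsion at the given g/ha rate. Seeds sat beneath about 1.5 cm of sterilized diluvial soil, and boxes stood in a greenhouse at 25 to 30° C.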

birds-eye speedwell [2] = experiment: Test Example 4: weedkilling efficacy by foliar treatment; p: birds-eye speedwell; details: treatment dosage 315 g/ha
How it was run: (§2)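 Seeds are spot-sown into sterilized diluvial soil and covered with about 1.5 cm of soil. After 14 days' greenhouse growth at 25 to 30° C, plants are sprayed on stems and leaves with diluted emulsion at the stated g/ha rate, then scored at 3 weeks.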

Indian mallow [3] = experiment: Test Example 3: weedkilling efficacy through soil treatment; K: Indian mallow; details: treatment dosage 315 g/ha
How it was run: as §1

fig-leafed goosefoot [4] = experiment: Test Example 4: weedkilling efficacy by foliar treatment; M: fig-leafed goosefoot; details: treatment dosage 315 g/ha
How it was run: as §2

wheat [5] = experiment: Test Example 4: foliar treatment, effect on crop; e: wheat; details: treatment dosage 315 g/ha
How it was run: as §2

bulrush [6] = experiment: Test Example 2: weedkilling efficacy, growth period weed treatment in the submerged state; B: bulrush; details: treatment dosage 252 g/ha
How it was run: (§3)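 Barnyard grass, bulrush and oval-leafed pondweed sown in alluvial soil under 4 cm flooding, greenhouse 25 to 30° C. At 1-2 leaf stage, water-diluted emulsion applied to the water surface at stated g/ha dosages; effects scored 3 weeks later.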

bulrush [7] = experiment: Test Example 1: weedkilling efficacy, preemergent weed treatment in the submerged state; B: bulrush; details: treatment dosage 252 g/ha
How it was run: (§4)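 Pots of alluvial soil flooded 4 cm deep, sown with barnyard grass, bulrush and oval-leafed pondweed and transplanted with 2.5-leaf rice. Emulsified compound applied to the water surface on sowing day at stated g/ha; greenhouse 25–30 °C, effects assessed 3 weeks after treatment.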

redroot pigweed [8] = experiment: Test Example 4: weedkilling efficacy by foliar treatment; L: redroot pigweed; details: treatment dosage 315 g/ha
How it was run: as §2

green foxtail [9] = experiment: Test Example 4: weedkilling efficacy by foliar treatment; E: green foxtail; details: treatment dosage 315 g/ha
How it was run: as §2

crabgrass [10] = experiment: Test Example 3: weedkilling efficacy through soil treatment; D: crabgrass; details: treatment dosage 315 g/ha
How it was run: as §1

green foxtail [11] = experiment: Test Example 3: weedkilling efficacy through soil treatment; E: green foxtail; details: treatment dosage 315 g/ha
How it was run: as §1

soybean [12] = experiment: Test Example 3: soil treatment, effect on crop; d: soybean; details: treatment dosage 315 g/ha
How it was run: as §1

directly sown rice [13] = experiment: Test Example 4: foliar treatment, effect on crop; b: directly sown rice; details: treatment dosage 315 g/ha
How it was run: as §2

corn [14] = experiment: Test Example 3: soil treatment, effect on crop; c: corn; details: treatment dosage 315 g/ha
How it was run: as §1

wheat [15] = experiment: Test Example 3: soil treatment, effect on crop; e: wheat; details: treatment dosage 315 g/ha
How it was run: as §1

oval-leafed pondweed [16] = experiment: Test Example 2: weedkilling efficacy, growth period weed treatment in the submerged state; C: oval-leafed pondweed; details: treatment dosage 252 g/ha
How it was run: as §3

Italian ryegrass [17] = experiment: Test Example 3: weedkilling efficacy through soil treatment; I: Italian ryegrass; details: treatment dosage 315 g/ha
How it was run: as §1

black-grass [18] = experiment: Test Example 3: weedkilling efficacy through soil treatment; H: black-grass; details: treatment dosage 315 g/ha
How it was run: as §1

barnyard grass [19] = experiment: Test Example 1: weedkilling efficacy, preemergent weed treatment in the submerged state; A: barnyard grass; details: treatment dosage 252 g/ha
How it was run: as §4

fig-leafed goosefoot [20] = experiment: Test Example 3: weedkilling efficacy through soil treatment; M: fig-leafed goosefoot; details: treatment dosage 315 g/ha
How it was run: as §1

corn [21] = experiment: Test Example 4: foliar treatment, effect on crop; c: corn; details: treatment dosage 315 g/ha
How it was run: as §2

soybean [22] = experiment: Test Example 4: foliar treatment, effect on crop; d: soybean; details: treatment dosage 315 g/ha
How it was run: as §2

transplanted rice = experiment: Test Example 1: preemergent weed treatment in the submerged state, effect on crop; a: transplanted rice; details: treatment dosage 252 g/ha
How it was run: as §4

crabgrass [23] = experiment: Test Example 4: weedkilling efficacy by foliar treatment; D: crabgrass; details: treatment dosage 315 g/ha
How it was run: as §2

barnyard grass [24] = experiment: Test Example 2: weedkilling efficacy, growth period weed treatment in the submerged state; A: barnyard grass; details: treatment dosage 252 g/ha
How it was run: as §3

catchweed [25] = experiment: Test Example 3: weedkilling efficacy through soil treatment; O: catchweed; details: treatment dosage 315 g/ha
How it was run: as §1

black-grass [26] = experiment: Test Example 4: weedkilling efficacy by foliar treatment; H: black-grass; details: treatment dosage 315 g/ha
How it was run: as §2

directly sown rice [27] = experiment: Test Example 3: soil treatment, effect on crop; b: directly sown rice; details: treatment dosage 315 g/ha
How it was run: as §1

catchweed [28] = experiment: Test Example 4: weedkilling efficacy by foliar treatment; O: catchweed; details: treatment dosage 315 g/ha
How it was run: as §2

chickweed [29] = experiment: Test Example 4: weedkilling efficacy by foliar treatment; N: chickweed; details: treatment dosage 315 g/ha
How it was run: as §2

redroot pigweed [30] = experiment: Test Example 3: weedkilling efficacy through soil treatment; L: redroot pigweed; details: treatment dosage 315 g/ha
How it was run: as §1

beet [31] = experiment: Test Example 4: foliar treatment, effect on crop; f: beet; details: treatment dosage 315 g/ha
How it was run: as §2

oval-leafed pondweed [32] = experiment: Test Example 1: weedkilling efficacy, preemergent weed treatment in the submerged state; C: oval-leafed pondweed; details: treatment dosage 252 g/ha
How it was run: as §4

beet [33] = experiment: Test Example 3: soil treatment, effect on crop; f: beet; details: treatment dosage 315 g/ha
How it was run: as §1

Italian ryegrass [34] = experiment: Test Example 4: weedkilling efficacy by foliar treatment; I: Italian ryegrass; details: treatment dosage 315 g/ha
How it was run: as §2

Indian mallow [35] = experiment: Test Example 4: weedkilling efficacy by foliar treatment; K: Indian mallow; details: treatment dosage 315 g/ha
How it was run: as §2

birds-eye speedwell [36] = experiment: Test Example 3: weedkilling efficacy through soil treatment; p: birds-eye speedwell; details: treatment dosage 315 g/ha
How it was run: as §1

Row | Structure (SMILES) | N (chickweed) weedkilling efficacy grade (chickweed [1]) | P (birds-eye speedwell) weedkilling efficacy grade (birds-eye speedwell [2]) | K (Indian mallow) weedkilling efficacy grade (Indian mallow [3]) | M (fig-leafed goosefoot) weedkilling efficacy grade (fig-leafed goosefoot [4]) | e (wheat) effect on crop grade (wheat [5]) | B (bulrush) weedkilling efficacy grade (bulrush [6]) | B (bulrush) weedkilling efficacy grade (bulrush [7]) | L (redroot pigweed) weedkilling efficacy grade (redroot pigweed [8]) | E (green foxtail) weedkilling efficacy grade (green foxtail [9]) | D (crabgrass) weedkilling efficacy grade (crabgrass [10]) | E (green foxtail) weedkilling efficacy grade (green foxtail [11]) | d (soybean) effect on crop grade (soybean [12]) | b (directly sown rice) effect on crop grade (directly sown rice [13]) | c (corn) effect on crop grade (corn [14]) | e (wheat) effect on crop grade (wheat [15]) | C (oval-leafed pondweed) weedkilling efficacy grade (oval-leafed pondweed [16]) | I (Italian ryegrass) weedkilling efficacy grade (Italian ryegrass [17]) | H (black-grass) weedkilling efficacy grade (black-grass [18]) | A (barnyard grass) weedkilling efficacy grade (barnyard grass [19]) | M (fig-leafed goosefoot) weedkilling efficacy grade (fig-leafed goosefoot [20]) | other results
1 | CC1=C(c2ccccc2)C(=O)N(C(C)(C)C(=O)Nc2nc(-c3ccccc3)ns2)CO1 [B-1-17] | 3 (weed kill ratio 40% or more, less than 70%) | 3 (weed kill ratio 40% or more, less than 70%) | 0 (weed kill ratio 5% or less (practically no effect)) | 4 (weed kill ratio 70% or more, less than 90%) | 0 (weed kill ratio 5% or less (practically no effect)) | 5 (weed kill ratio 90% or more, (practically complete withering)) | 5 (weed kill ratio 90% or more, (practically complete withering)) | 5 (weed kill ratio 90% or more, (practically complete withering)) | 5 (weed kill ratio 90% or more, (practically complete withering)) | 5 (weed kill ratio 90% or more, (practically complete withering)) | 5 (weed kill ratio 90% or more, (practically complete withering)) | 0 (weed kill ratio 5% or less (practically no effect)) | 4 (weed kill ratio 70% or more, less than 90%) | 0 (weed kill ratio 5% or less (practically no effect)) | 3 (weed kill ratio 40% or more, less than 70%) | 4 (weed kill ratio 70% or more, less than 90%) | 5 (weed kill ratio 90% or more, (practically complete withering)) | 5 (weed kill ratio 90% or more, (practically complete withering)) | 5 (weed kill ratio 90% or more, (practically complete withering)) | 5 (weed kill ratio 90% or more, (practically complete withering)) | c (corn) effect on crop grade (corn [21]): 5 (weed kill ratio 90% or more, (practically complete withering)); d (soybean) effect on crop grade (soybean [22]): 0 (weed kill ratio 5% or less (practically no effect)); a (transplanted rice) effect on crop grade (transplanted rice): 0 (weed kill ratio 5% or less (practically no effect)); D (crabgrass) weedkilling efficacy grade (crabgrass [23]): 5 (weed kill ratio 90% or more, (practically complete withering)); A (barnyard grass) weedkilling efficacy grade (barnyard grass [24]): 5 (weed kill ratio 90% or more, (practically complete withering)); O (catchweed) weedkilling efficacy grade (catchweed [25]): 5 (weed kill ratio 90% or more, (practically complete withering)); H (black-grass) weedkilling efficacy grade (black-grass [26]): 5 (weed kill ratio 90% or more, (practically complete withering)); b (directly sown rice) effect on crop grade (directly sown rice [27]): 0 (weed kill ratio 5% or less (practically no effect)); O (catchweed) weedkilling efficacy grade (catchweed [28]): 4 (weed kill ratio 70% or more, less than 90%); N (chickweed) weedkilling efficacy grade (chickweed [29]): 3 (weed kill ratio 40% or more, less than 70%); L (redroot pigweed) weedkilling efficacy grade (redroot pigweed [30]): 4 (weed kill ratio 70% or more, less than 90%); f (beet) effect on crop grade (beet [31]): 0 (weed kill ratio 5% or less (practically no effect)); C (oval-leafed pondweed) weedkilling efficacy grade (oval-leafed pondweed [32]): 5 (weed kill ratio 90% or more, (practically complete withering)); f (beet) effect on crop grade (beet [33]): 0 (weed kill ratio 5% or less (practically no effect)); I (Italian ryegrass) weedkilling efficacy grade (Italian ryegrass [34]): 1 (weed kill ratio 5% or more, less than 20%); K (Indian mallow) weedkilling efficacy grade (Indian mallow [35]): 5 (weed kill ratio 90% or more, (practically complete withering)); P (birds-eye speedwell) weedkilling efficacy grade (birds-eye speedwell [36]): 5 (weed kill ratio 90% or more, (practically complete withering))
2 | CC1=C(c2ccc(Cl)s2)C(=O)N(C(C)(C)C(=O)Nc2cccc(Br)n2)CO1 [B-2-03] | 4 (weed kill ratio 70% or more, less than 90%) | 2 (weed kill ratio 20% or more, less than 40%) | 0 (weed kill ratio 5% or less (practically no effect)) | 3 (weed kill ratio 40% or more, less than 70%) | 0 (weed kill ratio 5% or less (practically no effect)) | 5 (weed kill ratio 90% or more, (practically complete withering)) | 5 (weed kill ratio 90% or more, (practically complete withering)) | 1 (weed kill ratio 5% or more, less than 20%) | 1 (weed kill ratio 5% or more, less than 20%) | 3 (weed kill ratio 40% or more, less than 70%) | 3 (weed kill ratio 40% or more, less than 70%) | 0 (weed kill ratio 5% or less (practically no effect)) | 1 (weed kill ratio 5% or more, less than 20%) | 0 (weed kill ratio 5% or less (practically no effect)) | 1 (weed kill ratio 5% or more, less than 20%) | 4 (weed kill ratio 70% or more, less than 90%) | 3 (weed kill ratio 40% or more, less than 70%) | 5 (weed kill ratio 90% or more, (practically complete withering)) | 5 (weed kill ratio 90% or more, (practically complete withering)) | 0 (weed kill ratio 5% or less (practically no effect)) | c (corn) effect on crop grade (corn [21]): 0 (weed kill ratio 5% or less (practically no effect)); d (soybean) effect on crop grade (soybean [22]): 1 (weed kill ratio 5% or more, less than 20%); a (transplanted rice) effect on crop grade (transplanted rice): 0 (weed kill ratio 5% or less (practically no effect)); D (crabgrass) weedkilling efficacy grade (crabgrass [23]): 3 (weed kill ratio 40% or more, less than 70%); A (barnyard grass) weedkilling efficacy grade (barnyard grass [24]): 5 (weed kill ratio 90% or more, (practically complete withering)); O (catchweed) weedkilling efficacy grade (catchweed [25]): 0 (weed kill ratio 5% or less (practically no effect)); H (black-grass) weedkilling efficacy grade (black-grass [26]): 3 (weed kill ratio 40% or more, less than 70%); b (directly sown rice) effect on crop grade (directly sown rice [27]): 1 (weed kill ratio 5% or more, less than 20%); O (catchweed) weedkilling efficacy grade (catchweed [28]): 0 (weed kill ratio 5% or less (practically no effect)); N (chickweed) weedkilling efficacy grade (chickweed [29]): 0 (weed kill ratio 5% or less (practically no effect)); L (redroot pigweed) weedkilling efficacy grade (redroot pigweed [30]): 3 (weed kill ratio 40% or more, less than 70%); f (beet) effect on crop grade (beet [31]): 1 (weed kill ratio 5% or more, less than 20%); C (oval-leafed pondweed) weedkilling efficacy grade (oval-leafed pondweed [32]): 5 (weed kill ratio 90% or more, (practically complete withering)); f (beet) effect on crop grade (beet [33]): 0 (weed kill ratio 5% or less (practically no effect)); I (Italian ryegrass) weedkilling efficacy grade (Italian ryegrass [34]): 3 (weed kill ratio 40% or more, less than 70%); K (Indian mallow) weedkilling efficacy grade (Indian mallow [35]): 0 (weed kill ratio 5% or less (practically no effect)); P (birds-eye speedwell) weedkilling efficacy grade (birds-eye speedwell [36]): 4 (weed kill ratio 70% or more, less than 90%)

Source: patent publication US9738634B2, “Heterocyclic amide compound and herbicide” (SYNGENTA PARTICIPATIONS AG, priority 2013, dated 2017)
